Data as given in US11209732B2, “Near infrared absorbing composition, film, infrared cut filter, solid image pickup element, infrared absorber, and compound” (FUJIFILM Corporation, priority 2015, dated 2021).

Assays:
[1] = Absorption maximum of compound in chloroform solution; assay type: physicochemical; settings: absorbance at maximum 0.7 to 1.2
Method: The absorption maximum of the squarylium compound (1) is a value measured using a chloroform solution of the squarylium compound that is adjusted such that an absorbance at the absorption maximum is in a range of 0.7 to 1.2.
Each of the obtained compounds was dissolved in chloroform to prepare a solution having a concentration of 1 g/L. Next, the solution in which each of the compounds was dissolved was appropriately diluted such that an absorbance at an absorption maximum in an absorption spectrum thereof was in a range of 0.7 to 1.2, and the absorption maximum (λmax) thereof was measured using UV-1800 (manufactured by Shimadzu Corporation).

[2] = Solubility of compound in solvents at 25° C.; assay type: physicochemical; settings: for Solubility PGMEA: propylene glycol monomethyl ether acetate; for Solubility Cyclohexanone / Solubility in each of the solvents (in words): cyclohexanone; for Solubility in each of the solvents (in words): PGMEA; for Solubility Toluene / Solubility in each of the solvents (in words): toluene
Method: The solubility of each of the compounds in each of solvents (cyclohexanone, propylene glycol monomethyl ether acetate (PGMEA), toluene) at 25° C. was evaluated based on the following criteria.
A: the solubility of the compound in the solvent at 25° C. was 2 mass % or higher

| Structure (SMILES) | Absorption Maximum (nm) [1] | Solubility Cyclohexanone [2] | Solubility PGMEA [2] | Solubility Toluene [2] | Solubility in each of the solvents (in words) [2] |
| --- | --- | --- | --- | --- | --- |
| CCCCCCCCCCCCN(c1ccccc1)c1ccc(C2=C([O-])/C(=C3C=C/C(=[N+](\CCCCCCCCCCCC)CCNS(=O)(=O)CCCC)C=C/3O)C2=O)s1 [Compound R-2, reference compound] | 653 nm | A (the solubility of the compound in the solvent at 25 °C was 2 mass % or higher) | A (the solubility of the compound in the solvent at 25 °C was 2 mass % or higher) | A (the solubility of the compound in the solvent at 25 °C was 2 mass % or higher) | – |
| CCCCCCCCc1ccc(N(c2ccc(CCCCCCCC)cc2)c2ccc(/C=C/c3ccc(C4=C([O-])/C(=c5\cc/c(=C\C=C6/C=CC(=[N+](c7ccc(CCCCCCCC)cc7)c7ccc(CCCCCCCC)cc7)S6)s5)C4=O)s3)s2)cc1 [Compound 4] | 860 nm | A (the solubility of the compound in the solvent at 25 °C was 2 mass % or higher) | B (the solubility of the compound in the solvent at 25 °C was 1 mass % or higher and lower than 2 mass %) | B (the solubility of the compound in the solvent at 25 °C was 1 mass % or higher and lower than 2 mass %) | – |
| CCCCc1ccc(N(c2ccc(CCCC)cc2)c2ccc(C3=C([O-])/C(=C4\C=CC(=[N+](c5ccc(CCCC)cc5)c5ccc(CCCC)cc5)S4)C3=O)s2)cc1 [Compound R-3, reference compound] | 704 nm | B (the solubility of the compound in the solvent at 25 °C was 1 mass % or higher and lower than 2 mass %) | D (the solubility of the compound in the solvent at 25 °C was lower than 0.5 mass %) | B (the solubility of the compound in the solvent at 25 °C was 1 mass % or higher and lower than 2 mass %) | insufficient |
| O=C1C(c2sc(N(c3ccccc3)c3ccccc3)nc2-c2ccccc2)=C([O-])/C1=C1/SC(=[N+](c2ccccc2)c2ccccc2)N=C1c1ccccc1 [Compound R-1, reference compound] | 687 nm | C (the solubility of the compound in the solvent at 25 °C was 0.5 mass % or higher and lower than 1 mass %) | D (the solubility of the compound in the solvent at 25 °C was lower than 0.5 mass %) | C (the solubility of the compound in the solvent at 25 °C was 0.5 mass % or higher and lower than 1 mass %) | insufficient |
| CCCCCCCCc1ccc(N(c2ccc(CCCCCCCC)cc2)c2cc3sc(C4=C([O-])/C(=c5\cc6c(s5)=CC(=[N+](c5ccc(CCCCCCCC)cc5)c5ccc(CCCCCCCC)cc5)S6)C4=O)cc3s2)cc1 [Compound 2] | 770 nm | A (the solubility of the compound in the solvent at 25 °C was 2 mass % or higher) | B (the solubility of the compound in the solvent at 25 °C was 1 mass % or higher and lower than 2 mass %) | B (the solubility of the compound in the solvent at 25 °C was 1 mass % or higher and lower than 2 mass %) | – |
| CCCCCCC1=CC(=[N+](c2ccc3ccccc3c2)c2ccc3ccccc3c2)S/C1=C1\C(=O)C(c2sc(N(c3ccc4ccccc4c3)c3ccc4ccccc4c3)cc2CCCCCC)=C1[O-] [Compound 1] | 719 nm | A (the solubility of the compound in the solvent at 25 °C was 2 mass % or higher) | B (the solubility of the compound in the solvent at 25 °C was 1 mass % or higher and lower than 2 mass %) | A (the solubility of the compound in the solvent at 25 °C was 2 mass % or higher) | – |
| CCCCCCc1cc(-c2ccc(N(c3ccc(C)cc3)c3ccc(C)cc3)s2)sc1C1=C([O-])/C(=c2/s/c(=C3\C=CC(=[N+](c4ccc(C)cc4)c4ccc(C)cc4)S3)cc2CCCCCC)C1=O [Compound 5] | – | A (the solubility of the compound in the solvent at 25 °C was 2 mass % or higher) | B (the solubility of the compound in the solvent at 25 °C was 1 mass % or higher and lower than 2 mass %) | A (the solubility of the compound in the solvent at 25 °C was 2 mass % or higher) | – |
